From US9371320B2, “Heterocyclic compound” (TAKEDA PHARMACEUTICAL COMPANY LIMITED, priority 2012, dated 2016)
Where two headings read alike, the source gives them in different places.

Legend:
JAK1 = target: T1, JAK1 (Homo sapiens, UniProt P23458); test: JAK1 enzyme inhibition test (LANCE method); type: biochemical; conditions: for inhibition at 1 µM: read-out: Inhibitory rate (%) JAK1 1 μM; for inhibition at 10 µM: read-out: Inhibitory rate (%) JAK1 10 μM
T1 construct: purchased Invitrogen
Method: JAK1 Enzyme Inhibition Test
(§1) JAK1 enzyme inhibitory activity of test compounds was measured by LANCE method (PerkinElmer). First, a test compound diluted with assay buffer (50 mM HEPES (pH=7.5), 10 mM MgCl2, 1 mM EGTA, 2 mM DTT, 0.01% Tween20, 0.01% BSA) was added to 384-well plate at 2 μL each. Then, a JAK1 (Invitrogen) solution and a fluorescence-labeled peptide substrate (ULight-JAK1, PerkinElmer) solution diluted with assay buffer at 187.5 ng/mL and 300 nM, respectively were added at 2 μL each. Then, enzyme reaction was started by adding 2 μL each of ATP solution prepared with assay buffer at 150 μM. After the reaction at room temperature for 1 hr, Detection Buffer (PerkinElmer) prepared to be 20 mM EDTA, 4 nM europium-labeled anti-phosphotyrosine antibody (PerkinElmer) was added at 6 μL each. After standing at room temperature for 1 hr, fluorescence intensity (excitation wavelength 340 nm, fluorescence wavelength 665 nm, delay time 100 microsecond) was measured by a plate reader, Envision (PerkinElmer). The inhibitory activity of each compound was calculated as relative value where fluorescence intensity of a well without enzyme is considered as 100% inhibition.

Tyk2 = target: T2, Tyk2 (Homo sapiens, UniProt P29597); test: Tyk2 enzyme inhibition test (LANCE method); type: biochemical; conditions: for inhibition at 1 µM: read-out: Inhibitory rate (%) Tyk2 1 μM
T2 construct: purchased Invitrogen
Method: Tyk2 Enzyme Inhibition Test
as §1, with “Tyk2 enzyme” for “JAK1 enzyme”, “a Tyk2” for “a JAK1”, “at 375” for “at 187.5”, “at 30” for “at 150”

[1] = test compound 10 μM (Ex. 182-220), beside Tyk2 1 μM

T2 sequence (P29597 whole entry): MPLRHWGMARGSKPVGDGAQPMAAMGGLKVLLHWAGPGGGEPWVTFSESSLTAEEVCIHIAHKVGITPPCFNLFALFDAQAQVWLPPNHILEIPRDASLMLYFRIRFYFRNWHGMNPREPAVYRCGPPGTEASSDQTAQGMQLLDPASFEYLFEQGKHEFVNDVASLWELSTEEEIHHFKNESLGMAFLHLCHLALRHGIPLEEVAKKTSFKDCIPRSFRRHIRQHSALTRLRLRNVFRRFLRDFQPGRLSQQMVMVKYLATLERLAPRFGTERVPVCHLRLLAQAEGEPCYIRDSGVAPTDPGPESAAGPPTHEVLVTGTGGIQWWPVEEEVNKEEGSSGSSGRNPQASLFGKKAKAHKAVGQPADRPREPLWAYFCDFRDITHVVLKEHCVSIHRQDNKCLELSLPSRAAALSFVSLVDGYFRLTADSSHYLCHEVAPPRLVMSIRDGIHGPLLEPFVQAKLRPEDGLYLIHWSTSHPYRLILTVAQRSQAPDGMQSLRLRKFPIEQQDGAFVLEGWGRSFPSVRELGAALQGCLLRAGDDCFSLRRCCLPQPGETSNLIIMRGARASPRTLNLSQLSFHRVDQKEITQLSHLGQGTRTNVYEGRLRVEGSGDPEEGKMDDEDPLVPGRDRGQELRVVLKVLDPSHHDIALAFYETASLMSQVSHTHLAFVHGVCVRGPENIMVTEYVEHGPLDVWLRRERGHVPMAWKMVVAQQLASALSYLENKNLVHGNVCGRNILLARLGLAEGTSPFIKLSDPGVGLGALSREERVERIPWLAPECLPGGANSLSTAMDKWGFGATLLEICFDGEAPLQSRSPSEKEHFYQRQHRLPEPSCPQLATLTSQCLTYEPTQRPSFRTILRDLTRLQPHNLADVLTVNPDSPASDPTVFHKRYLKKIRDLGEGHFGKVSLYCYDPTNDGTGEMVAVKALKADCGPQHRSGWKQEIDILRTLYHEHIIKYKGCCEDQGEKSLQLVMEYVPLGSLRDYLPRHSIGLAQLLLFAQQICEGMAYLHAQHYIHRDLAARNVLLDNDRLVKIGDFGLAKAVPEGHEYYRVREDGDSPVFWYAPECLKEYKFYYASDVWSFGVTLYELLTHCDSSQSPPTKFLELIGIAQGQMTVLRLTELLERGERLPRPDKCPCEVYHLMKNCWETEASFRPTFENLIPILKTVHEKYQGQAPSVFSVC
T1 sequence (P23458 whole entry): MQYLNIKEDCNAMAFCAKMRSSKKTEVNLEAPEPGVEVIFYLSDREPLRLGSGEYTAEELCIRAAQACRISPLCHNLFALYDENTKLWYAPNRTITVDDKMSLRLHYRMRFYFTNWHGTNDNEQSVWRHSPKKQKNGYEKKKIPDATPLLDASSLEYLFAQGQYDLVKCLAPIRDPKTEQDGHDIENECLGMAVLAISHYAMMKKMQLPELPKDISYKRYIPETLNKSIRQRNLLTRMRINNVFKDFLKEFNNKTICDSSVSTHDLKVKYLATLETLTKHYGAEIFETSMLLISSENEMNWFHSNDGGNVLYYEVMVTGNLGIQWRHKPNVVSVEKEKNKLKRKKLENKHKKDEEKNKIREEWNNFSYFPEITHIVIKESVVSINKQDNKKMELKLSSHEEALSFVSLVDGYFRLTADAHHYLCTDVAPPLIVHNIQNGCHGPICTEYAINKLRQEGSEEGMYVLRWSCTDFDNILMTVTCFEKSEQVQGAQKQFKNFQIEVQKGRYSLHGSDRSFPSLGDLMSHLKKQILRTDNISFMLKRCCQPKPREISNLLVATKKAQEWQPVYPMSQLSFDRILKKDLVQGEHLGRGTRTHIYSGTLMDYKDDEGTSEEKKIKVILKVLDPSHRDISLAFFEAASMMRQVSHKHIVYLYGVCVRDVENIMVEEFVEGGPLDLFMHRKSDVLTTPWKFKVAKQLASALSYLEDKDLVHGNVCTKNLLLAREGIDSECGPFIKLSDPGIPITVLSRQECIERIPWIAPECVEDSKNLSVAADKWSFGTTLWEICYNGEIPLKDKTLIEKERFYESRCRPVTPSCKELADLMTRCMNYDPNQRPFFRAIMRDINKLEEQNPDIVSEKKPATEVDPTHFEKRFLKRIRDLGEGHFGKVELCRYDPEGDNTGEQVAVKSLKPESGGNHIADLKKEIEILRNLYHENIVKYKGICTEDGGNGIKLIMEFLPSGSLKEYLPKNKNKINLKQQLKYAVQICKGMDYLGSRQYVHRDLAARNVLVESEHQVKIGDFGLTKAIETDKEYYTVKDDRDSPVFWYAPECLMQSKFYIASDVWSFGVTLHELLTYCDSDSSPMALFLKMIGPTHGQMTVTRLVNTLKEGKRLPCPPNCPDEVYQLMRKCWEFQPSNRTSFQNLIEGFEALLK

Compound	inhibition at 1 µM (JAK1; test compound 1 μM)	inhibition at 1 µM (Tyk2; test compound 1 μM)	also measured
COC(=O)c1c[nH]c(=O)c2c(-c3csc(-c4noc(=O)[nH]4)c3)cn(C3CCCC3)c12 [Example 74, methyl 1-cyclopentyl-4-oxo-3-(5-(5-oxo-4,5-dihydro-1,2,4-oxadiazol-3-yl)-3-thienyl)-4,5-dihydro-1H-pyrrolo[3,2-c]pyridine-7-carboxylate]	44%	85%	
O=C1Cc2ccc(-c3nn(-c4c(F)cccc4F)c4c(Cl)c[nH]c(=O)c34)cc2N1 [Example 227, 7-chloro-1-(2,6-difluorophenyl)-3-(2-oxo-2,3-dihydro-1H-indol-6-yl)-1,5-dihydro-4H-pyrazolo[4,3-c]pyridin-4-one]	54%	97%	
COc1cc(N)cc(F)c1-n1cc(-c2csc(C(N)=O)c2)c2c(=O)[nH]ccc21 [Example 302, 4-(1-(4-amino-2-fluoro-6-methoxyphenyl)-4-oxo-4,5-dihydro-1H-pyrrolo[3,2-c]pyridin-3-yl)thiophene-2-carboxamide]	97%	95%	
O=c1[nH]cc(Cl)c2c1c(-c1ccc(N3CCCOCC3)cc1)nn2-c1c(F)cccc1F [Example 207, 7-chloro-1-(2,6-difluorophenyl)-3-(4-(1,4-oxazepan-4-yl)phenyl)-1,5-dihydro-4H-pyrazolo[4,3-c]pyridin-4-one]		100%	inhibition at 10 µM (JAK1; [1]): 73%
O=c1[nH]ccc2c1c(-c1ccccc1C(F)(F)F)nn2C1CCCC1 [Example 53, 1-cyclopentyl-3-(2-(trifluoromethyl)phenyl)-1,5-dihydro-4H-pyrazolo[4,3-c]pyridin-4-one]			inhibition at 10 µM (JAK1; test compound 10 μM): 10%; inhibition at 10 µM (Tyk2; test compound 10 μM, read-out: Inhibitory rate (%) Tyk2 10 μM): 28%
N#Cc1c[nH]c(=O)c2c(-c3ccccc3)cn(C3CCCC3)c12 [Example 103, 1-cyclopentyl-4-oxo-3-phenyl-4,5-dihydro-1H-pyrrolo[3,2-c]pyridine-7-carbonitrile]	48%	91%	
O=c1[nH]cc(Cl)c2c1c(-c1ccc(N3CCSCC3)cc1)nn2-c1c(F)cccc1F [Example 236, 7-chloro-1-(2,6-difluorophenyl)-3-(4-(thiomorpholin-4-yl)phenyl)-1,5-dihydro-4H-pyrazolo[4,3-c]pyridin-4-one]	65%	99%	
Nc1ncc(-c2nn(-c3c(F)cccc3F)c3cc[nH]c(=O)c23)cn1 [Example 300, 3-(2-aminopyrimidin-5-yl)-1-(2,6-difluorophenyl)-1,5-dihydro-4H-pyrazolo[4,3-c]pyridin-4-one]	68%	83%	
O=c1[nH]cc(Cl)c2c1c(-c1ccc(CN3CCOCC3)cc1)nn2-c1c(F)cccc1F [Example 185, 7-chloro-1-(2,6-difluorophenyl)-3-(4-(morpholin-4-ylmethyl)phenyl)-1,5-dihydro-4H-pyrazolo[4,3-c]pyridin-4-one]		99%	inhibition at 10 µM (JAK1; [1]): 72%
Cn1cc(NC(=O)c2cc(-c3nn(-c4c(F)cccc4F)c4c(Cl)c[nH]c(=O)c34)cs2)cn1 [Example 166, 4-(7-chloro-1-(2,6-difluorophenyl)-4-oxo-4,5-dihydro-1H-pyrazolo[4,3-c]pyridin-3-yl)-N-(1-methyl-1H-pyrazol-4-yl)thiophene-2-carboxamide]	98%	100%	
NC(=O)c1cccc(-c2nn(-c3c(F)cccc3F)c3c(Cl)c[nH]c(=O)c23)c1 [Example 254, 3-(7-chloro-1-(2,6-difluorophenyl)-4-oxo-4,5-dihydro-1H-pyrazolo[4,3-c]pyridin-3-yl)benzamide]	65%	98%	
CCC(CC)n1cc(-c2csc(C(=O)OC)c2)c2c(=O)[nH]ccc21 [Example 7, methyl 4-(4-oxo-1-(pentan-3-yl)-4,5-dihydro-1H-pyrrolo[3,2-c]pyridin-3-yl)thiophene-2-carboxylate]	95%	90%	
O=C(NCCO)c1ccc(-c2nn(-c3c(F)cccc3F)c3cc[nH]c(=O)c23)cc1 [Example 237, 4-(1-(2,6-difluorophenyl)-4-oxo-4,5-dihydro-1H-pyrazolo[4,3-c]pyridin-3-yl)-N-(2-hydroxyethyl)benzamide]	87%	99%	
O=C1CCCN1Cc1cc(-c2nn(-c3c(F)cccc3F)c3c(Cl)c[nH]c(=O)c23)cs1 [Example 220, 7-chloro-1-(2,6-difluorophenyl)-3-(5-((2-oxopyrrolidin-1-yl)methyl)-3-thienyl)-1,5-dihydro-4H-pyrazolo[4,3-c]pyridin-4-one]		100%	inhibition at 10 µM (JAK1; [1]): 98%
NC(=O)c1cc(F)cc(-c2nn(-c3c(F)cccc3F)c3cc[nH]c(=O)c23)c1 [Example 268, 3-(1-(2,6-difluorophenyl)-4-oxo-4,5-dihydro-1H-pyrazolo[4,3-c]pyridin-3-yl)-5-fluorobenzamide]	4%	33%	
NS(=O)(=O)c1ccc(-c2nn(C3CCOC3)c3cc[nH]c(=O)c23)cc1 (centres unmarked) [Example 84, 4-(4-oxo-1-(tetrahydrofuran-3-yl)-4,5-dihydro-1H-pyrazolo[4,3-c]pyridin-3-yl)benzenesulfonamide]			Inhibitory rate (%) JAK1 1 μM (JAK1; test compound 1 μM): 84%; Inhibitory rate (%) Tyk2 1 μM (Tyk2; test compound 1 μM): 58%
O=c1[nH]cc(Cl)c2c1c(-c1ccc(N3CCOCC3)c(F)c1)nn2-c1c(F)cccc1F [Example 206, 7-chloro-1-(2,6-difluorophenyl)-3-(3-fluoro-4-(morpholin-4-yl)phenyl)-1,5-dihydro-4H-pyrazolo[4,3-c]pyridin-4-one]		100%	inhibition at 10 µM (JAK1; [1]): 45%

More lines, main results first:

inhibition at 1 µM (JAK1; test compound 1 μM)	inhibition at 1 µM (Tyk2; test compound 1 μM)	Compound	also measured
98%	97%	CN(C)C(=O)c1cc(-c2nn(C3CCCC3)c3cc[nH]c(=O)c23)cs1 [Example 286, 4-(1-cyclopentyl-4-oxo-4,5-dihydro-1H-pyrazolo[4,3-c]pyridin-3-yl)-N,N-dimethylthiophene-2-carboxamide]	
94%	99%	C[C@@H]1COCCN1c1ccc(-c2nn(-c3c(F)cccc3F)c3cc[nH]c(=O)c23)cc1 [Example 246, 1-(2,6-difluorophenyl)-3-(4-((3R)-3-methylmorpholin-4-yl)phenyl)-1,5-dihydro-4H-pyrazolo[4,3-c]pyridin-4-one]	
96%	99%	NC(=O)c1cc(F)c(-n2nc(-c3ccc(N4CCOCC4)cc3)c3c(=O)[nH]ccc32)c(F)c1 [Example 251, 3,5-difluoro-4-(3-(4-(morpholin-4-yl)phenyl)-4-oxo-4,5-dihydro-1H-pyrazolo[4,3-c]pyridin-1-yl)benzamide]	
96%	77%	CC1(Cn2nc(-c3ccc(S(N)(=O)=O)cc3)c3c(=O)[nH]ccc32)COC1 [Example 100, 4-(1-((3-methyloxetan-3-yl)methyl)-4-oxo-4,5-dihydro-1H-pyrazolo[4,3-c]pyridin-3-yl)benzenesulfonamide]	
99%	98%	N#CCc1ccc(-c2nn(-c3c(F)cccc3F)c3cc[nH]c(=O)c23)cc1 [Example 39, (4-(1-(2,6-difluorophenyl)-4-oxo-4,5-dihydro-1H-pyrazolo[4,3-c]pyridin-3-yl)phenyl)acetonitrile]	
85%	91%	O=c1[nH]ccc2c1c(-c1ccc(N3CCOCC3)cc1)nn2C1CCC(F)(F)CC1 [Example 266, 1-(4,4-difluorocyclohexyl)-3-(4-(morpholin-4-yl)phenyl)-1,5-dihydro-4H-pyrazolo[4,3-c]pyridin-4-one]	
93%	100%	CNC(=O)C1CCN(c2ccc(-c3nn(-c4c(F)cccc4F)c4cc[nH]c(=O)c34)cc2)CC1 [Example 310, 1-(4-(1-(2,6-difluorophenyl)-4-oxo-4,5-dihydro-1H-pyrazolo[4,3-c]pyridin-3-yl)phenyl)-N-methylpiperidine-4-carboxamide]	
98%	99%	NS(=O)(=O)c1ccc(Nc2nn(C3CCCC3)c3cc[nH]c(=O)c23)cc1 [Example 297, 4-((1-cyclopentyl-4-oxo-4,5-dihydro-1H-pyrazolo[4,3-c]pyridin-3-yl)amino)benzenesulfonamide]	
